The test concerns Bifidobacterium lactis HNO19. Put plainly: Growth test of Bifidobacterium lactis HNO19: organic acids in culture broth by HPLC. Format: cell-based. Particulars: HNO19 in MRS+0.05% cysteine medium with 1% carbon source, HPLC at 12 hours. As to the method:
Bifidobacterium lactis HNO19 was purchased from Danisco. The strain was cultured in de Man Rogosa Sharpe (MRS) broth (Difco, Detroit, Md.) supplemented with 0.5 g/LL-cysteine and incubated for 24 h at 37° C. under anaerobic conditions. […] After the second passage, the culture was prepared for use as inoculum for the growth tests described below. Various carbon source stock solutions were sterilized by passing through 0.22 micron filters and used at 1% final concentration. […] The contents of lactic acid, acetic acid, propionic acid and butyric acid in the above-mentioned various combined culture broths were measured by high performance liquid chromatography (HPLC) at 12 hours.

The structures appear in SMILES notation.

With `OC[C@H]1O[C@@H](O[C@@H]2[C@@H](CO)O[C@](O)(CO)[C@H]2O)[C@H](O)[C@@H](O)[C@H]1O` [LOS, 4-O-β-D-galactopyranosyl-4-D-fructose], the “Contents of organic acids in the culture medium: Acetic acid” value is on record as 0.238 ± 0.002, the “Contents of organic acids in the culture medium: Lactic acid” value worked out at 0.034 ± 0.002 and the “Contents of organic acids in the culture medium: Total amount of organic acid” value is reported as 0.272 ± 0.004.
